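Step 1: Grow cells in 96-well plates. Step 2: Expose to compound for 48 hours at 5 concentrations. Step 3: Interpolate endpoints linearly; if unreached, use highest concentration. TGI: total growth inhibition.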
tested on: SW-620 colon; assay: NCI tumour cell line growth inhibition, 48 h

SMILES	TGI [µM]
Cc1ccccc1Nc1cn(COCc2ccccc2)c(=O)[nH]c1=O	> 100
Cc1oc2nc(N(C)C)nc(Cl)c2c1C	> 100
Cn1c(=O)c2c(nc(NCCCCl)n2CC(=O)NCCCCl)n(C)c1=O	> 100
Clc1cccc(Cl)c1C1SCC2=Nc3ccccc3CN21 (configuration not stated)	> 100
CC(=O)O[C@@H]1C=C(C)[C@H](CBr)O[C@@]2(C)CC[C@H](Br)C(C)(C)[C@H]12	> 100
Nc1nc(Cl)cc(NCC2(CO)COC2)n1	> 100

tested on: NCI-H522 lung; assay: NCI tumour cell line growth inhibition, 48 h

SMILES	TGI [µM]
Cc1nc(N)c(N2CCNCC2)c(=O)[nH]1	> 100
CCOC(=O)NC(Nc1ccc(S(=O)(=O)Nc2ncccn2)cc1)(C(=O)OCC)C(F)(F)F (configuration not stated)	> 100
O=P(O)(O)CN1CCN(CP(=O)(O)O)CCN(CP(=O)(O)O)CCN(CP(=O)(O)O)CC1	> 100
O=C1C(Br)=CC2(C=C1Br)CCN=c1c(O)c3c(c(O)c12)=NC=N3	28.1
Cc1ccccc1Nc1cn(COCc2ccccc2)c(=O)[nH]c1=O	> 100
Cc1oc2nc(N(C)C)nc(Cl)c2c1C	> 100
Cn1c(=O)c2c(nc(NCCCCl)n2CC(=O)NCCCCl)n(C)c1=O	> 100
CC(=O)O[C@@H]1C=C(C)[C@H](CBr)O[C@@]2(C)CC[C@H](Br)C(C)(C)[C@H]12	90.2
COc1ccc2c(c1)OCc1c-2oc2ccccc2c1=O	> 100
Nc1nc(Cl)cc(NCC2(CO)COC2)n1	> 100

tested on: K-562 leukemia; assay: NCI tumour cell line growth inhibition, 48 h

SMILES	TGI [µM]
Cc1nc(N)c(N2CCNCC2)c(=O)[nH]1	> 100
CCOC(=O)NC(Nc1ccc(S(=O)(=O)Nc2ncccn2)cc1)(C(=O)OCC)C(F)(F)F (configuration not stated)	> 100
O=P(O)(O)CN1CCN(CP(=O)(O)O)CCN(CP(=O)(O)O)CCN(CP(=O)(O)O)CC1	> 100
O=C1C(Br)=CC2(C=C1Br)CCN=c1c(O)c3c(c(O)c12)=NC=N3	41.1
Cc1ccccc1Nc1cn(COCc2ccccc2)c(=O)[nH]c1=O	> 100
Cc1oc2nc(N(C)C)nc(Cl)c2c1C	> 100
Cn1c(=O)c2c(nc(NCCCCl)n2CC(=O)NCCCCl)n(C)c1=O	> 100
Clc1cccc(Cl)c1C1SCC2=Nc3ccccc3CN21 (configuration not stated)	> 100
CC(=O)O[C@@H]1C=C(C)[C@H](CBr)O[C@@]2(C)CC[C@H](Br)C(C)(C)[C@H]12	> 100
COc1ccc2c(c1)OCc1c-2oc2ccccc2c1=O	> 100
Nc1nc(Cl)cc(NCC2(CO)COC2)n1	> 100

tested on: A498 renal; assay: NCI tumour cell line growth inhibition, 48 h

SMILES	TGI [µM]
Cc1nc(N)c(N2CCNCC2)c(=O)[nH]1	> 100
O=P(O)(O)CN1CCN(CP(=O)(O)O)CCN(CP(=O)(O)O)CCN(CP(=O)(O)O)CC1	> 100
O=C1C(Br)=CC2(C=C1Br)CCN=c1c(O)c3c(c(O)c12)=NC=N3	33.2
Cc1ccccc1Nc1cn(COCc2ccccc2)c(=O)[nH]c1=O	> 100
Cc1oc2nc(N(C)C)nc(Cl)c2c1C	> 100
Cn1c(=O)c2c(nc(NCCCCl)n2CC(=O)NCCCCl)n(C)c1=O	> 100
Clc1cccc(Cl)c1C1SCC2=Nc3ccccc3CN21 (configuration not stated)	> 100
CC(=O)O[C@@H]1C=C(C)[C@H](CBr)O[C@@]2(C)CC[C@H](Br)C(C)(C)[C@H]12	> 100
COc1ccc2c(c1)OCc1c-2oc2ccccc2c1=O	> 100
Nc1nc(Cl)cc(NCC2(CO)COC2)n1	> 100

tested on: SK-MEL-28 melanoma; assay: NCI tumour cell line growth inhibition, 48 h

SMILES	TGI [µM]
Cc1nc(N)c(N2CCNCC2)c(=O)[nH]1	> 100
CCOC(=O)NC(Nc1ccc(S(=O)(=O)Nc2ncccn2)cc1)(C(=O)OCC)C(F)(F)F (configuration not stated)	> 100
O=C1C(Br)=CC2(C=C1Br)CCN=c1c(O)c3c(c(O)c12)=NC=N3	29.9
Cc1cc(O)c(/C=N/C(=S)NCCc2ccccc2)c(=O)o1	> 100
Cc1ccccc1Nc1cn(COCc2ccccc2)c(=O)[nH]c1=O	> 100
Cc1oc2nc(N(C)C)nc(Cl)c2c1C	> 100
Cn1c(=O)c2c(nc(NCCCCl)n2CC(=O)NCCCCl)n(C)c1=O	> 100
Clc1cccc(Cl)c1C1SCC2=Nc3ccccc3CN21 (configuration not stated)	91.2
CC(=O)O[C@@H]1C=C(C)[C@H](CBr)O[C@@]2(C)CC[C@H](Br)C(C)(C)[C@H]12	> 100
Nc1nc(Cl)cc(NCC2(CO)COC2)n1	> 100

Source: PubChem BioAssay (NCI)
